# In patent US12409174B2, “Combination of zibotentan and dapagliflozin for the treatment of endothelin related diseases” (priority 2020, dated 2025):
# Read-outs that look alike come from different tables or passages of the source.
# Legend:
# [1] = tested on: male Wistar rats fed a 4% salt diet; experiment: Effect of zibotentan, dapagliflozin and the combination on Hct, Experiment 2; format: in vivo; design: key to Hct levels, difference in means (estimate): difference in log-transformed Hct means, treated minus vehicle; Hct levels, Difference / Difference in Hct means: unit not given here; conditions: Exp 2; for Difference in Hct means: all time points; for Hct levels, difference in means (estimate): log scale
# Method: (§1) In the second experiment (Experiment 2), the effect of zibotentan and dapagliflozin (alone or in combination) on Hct concentration and Hb was determined. Seventy-two animals were randomized on BW and Hct concentration, 2 to 3 days prior to administration of study drugs into the following groups; 1) Vehicle, 2) Zibotentan (30 mg/kg), 3) Zibotentan (100 mg/kg), 4) Dapagliflozin (3 mg/kg), 5) Zibotentan (30 mg/kg)+Dapagliflozin (3 mg/kg) and 6) Zibotentan (100 mg/kg)+Dapagliflozin (3 mg/kg). For practical reasons, the study was conducted in two consecutive slots with 36 animals (6/group) in each slot. Compounds were administered p.o. QD for seven days. Blood samples for bioanalysis were collected at 4 and 24 hr after the first dose and 24 hr after the final dose for Hct concentration and Hb analysis on day three and seven as described for exp.1. Twenty-four hour urine was collected between the third and fourth dose. 24 hr food and water intake was measured between day 2-3 and between day 6-7. With two animals per cage, food intake and water intake per animal in a cage was assessed by dividing the food intake and water intake of a cage by two.
# (§2) For Hct and Hb analysis, 100 μl of blood from rat's tail vein was collected and measured using CG8 cartridges analysed with an iSTAT instrument (Abbott Point of Care Inc, Abbot Park, IL, USA).
# (§3) The data for each feature measured was checked for a normal distribution and where appropriate a log transformation was applied to data with a non-normal distribution using R. Since the data were grouped by one factor Zibotentin doses or combined therapy, a one-way ANOVA was used to analyse traits measured at a single time point (GraphPad version 8 or R statistics package emmeans) and a linear mixed effects model (nlme package) in R was used to analyse multiple measures data for body weight. The differences between groups were tested using either a Dunnett test (emmeans package in R or GraphPad v8) when comparing treated groups to the vehicle group or a Tukey comparison (emmeans package in R or Graphpad v8.) for specific pairwise comparisons of treated groups. All model assumptions were checked using the model diagnostic plots in R statistics. Results are expressed as the Mean±standard error of the Mean (SEM) for pharmacodynamic parameters and Mean±standard deviation (SD) for compound concentration in blood and urine. Significance was set at p<0.05.
# The Hct data were analysed using a linear mixed effects model to estimate the marginal means and standard deviations within the vehicle and treated groups estimated at day 3, day 7 and overall for the entire study for post hoc comparisons. Treatment groups were compared to the vehicle to determine whether there were effects on Hct compared to the vehicle treated control group (Dunnett test), and the zibotentan treated groups were compared to zibotentan plus dapagliflozin groups (using a Tukey test) to determine if the combined therapy mitigated the effect of zibotentan on Hct.
# [2] = tested on: male Wistar rats fed a 4% salt diet; experiment: Effect of zibotentan and dapagliflozin on Hb, Experiment 2; format: in vivo; conditions: Exp 2; for Basal Hb: baseline
# Method: as §1, §2, §3
# [3] = tested on: male Wistar rats on 4% salt diet; experiment: Effect of zibotentan on plasma Na, K, glucose and urea, Experiment 1; format: in vivo; conditions: Exp 1
# Method: (§4) In the first experiment (Experiment 1), the effect of zibotentan on haematocrit (Hct) concentration was determined when zibotentan was administered peroral (p.o) QD for 14 days. […] Animals were weighed daily prior to dosing throughout the experiment. Blood samples (20 μL) for bioanalysis were taken at 4 and 24 hr after the first dose via the tail vein from conscious animals and 24 hr after the last dose via retroorbital route from anesthetized animals. Blood samples were collected via tail vein (100 μL) for Hct concentration and haemoglobin (Hb) measurements, on day 7 and on day 14, 1-2 hr after dosing. Twenty-four hour urine was collected for the measurement of urinary glucose, urine volume and electrolytes between doses nine and ten. Animals were terminated 24 hr after the last dose. On the day of termination, animals were anesthetized using 5% isoflurane, and blood was collected via the retroorbital route (in heparin-coated microvette, Sarsted) and centrifuged at 3,500 rpm at 4° C. for 10 minutes, plasma was collected and stored at −80° C. degrees prior to analysis. Animals were then euthanized by the removal of the heart. Both the heart and the kidneys were extracted and weighed. From the right kidney, a 4 mm thick slice of tissue was collected and fixed in 4% formaldehyde for subsequent histological analysis and a piece of cortical kidney tissue and heart tissue was collected for gene expression analysis.
# Plasma and Urine Albumin, Creatinine, Glucose, Urea, Potassium and Sodium levels were analyzed using an ABX Pentra 400 instrument (Horiba Medical, Irvine, California, USA) according to the manufacturers protocol.
# (§5) Significance was set at p<0.05.
# [4] = Effect of zibotentan on body weight, Experiment 1; format: in vivo, male Wistar rats; conditions: Exp 1; for Body weight, Difference in means vs Vehicle: log scale, linear mixed effects model
# Method: as §4, §5
# [5] = tested on: male Wistar rats on 4% salt diet; experiment: Effect of zibotentan on kidney and heart weight, Experiment 1; format: in vivo
# Method: as §4, §5
# [6] = treatment of prostate cancer; development stopped in 2011; cited from earlier work
# [7] = Exp 1, Zibo 30 mg/kg p.o. QD 14 days
# [8] = Exp 1, Zibo 100 mg/kg p.o. QD 14 days
# [9] = Exp 1, Zibo 300 mg/kg p.o. QD 14 days
# [10] = Exp 1, zibotentan 100 mg/kg, 14 days
structure (smiles),measurement,setting,value
"CCOc1ccc(Cc2cc([C@@H]3O[C@H](CO)[C@@H](O)[C@H](O)[C@H]3O)ccc2Cl)cc1 [Dapa, (1S)-1,5-anhydro-1-{4-chloro-3-[(4-ethoxyphenyl)methyl]phenyl}-D-glucitol]",Difference in Hct means,[1]; Dapa 3 mg/kg vs Vehicle,0.01
same,"Hct levels, difference in means (estimate)","[1]; day 3, Dapa 3.0 mg/kg vs Vehicle",0.03
same,"Hct levels, Difference","[1]; day 7, Dapa 3.0 mg/kg vs Vehicle",0.01
same,Day 3 Hb,[2]; Dapa 3 mg/kg p.o. QD,164.4 g/L
same,Day 7 Hb,[2]; Dapa 3 mg/kg p.o. QD,159.1 g/L
same,Basal Hb,[2]; group Dapa 3 mg/kg,157.9 g/L
"COc1nc(C)cnc1NS(=O)(=O)c1cccnc1-c1ccc(-c2nnco2)cc1 [Zibo, N-(3-methoxy-5-methylpyrazin-2-yl)-2-[4-(1,3,4-oxadiazol-2-yl)phenyl]pyridine-3-sulfonamide]",Difference in Hct means,[1]; Zibo 30 mg/kg vs Vehicle,−0.05
same,Difference in Hct means,[1]; Zibo 100 mg/kg vs Vehicle,−0.06
same,"Hct levels, difference in means (estimate)","[1]; day 3, Zibo 30 mg/kg vs Vehicle",−0.10
same,"Hct levels, difference in means (estimate)","[1]; day 3, Zibo 100 mg/kg vs Vehicle",−0.08
same,Hct compared to vehicle,"[1]; day 3, zibotentan 30 and 100 mg/kg with or without dapagliflozin 3 mg/kg",decreased
same,"Hct levels, Difference","[1]; day 7, Zibo 30 mg/kg vs Vehicle",−0.06
same,"Hct levels, Difference","[1]; day 7, Zibo 100 mg/kg vs Vehicle",−0.08
same,Hct compared to vehicle,"[1]; day 7, zibotentan 30 and 100 mg/kg alone",decreased
same,Effect on Hct concentration,"[1]; zibotentan 100 mg/kg alone, 7 days, one way ANOVA, Tukey",−4.00±0.87
same,Hct concentration,"[1]; zibotentan 30 or 100 mg/kg, 7 days administration",significantly decreased
same,Plasma Glucose,[3]; Zibo 30 mg/kg p.o. QD 14 days,9.76 ± 0.28 mmol/L
same,Plasma K,[3]; Zibo 30 mg/kg p.o. QD 14 days,4.50 ± 0.06 mmol/L
same,Plasma Na,[3]; Zibo 30 mg/kg p.o. QD 14 days,137.0 ± 0.96 mmol/L
same,Plasma Urea,[3]; Zibo 30 mg/kg p.o. QD 14 days,4.64 ± 0.20 mmol/L
same,Plasma Glucose,[3]; Zibo 100 mg/kg p.o. QD 14 days,9.65 ± 0.30 mmol/L
same,Plasma K,[3]; Zibo 100 mg/kg p.o. QD 14 days,4.52 ± 0.06 mmol/L
same,Plasma Na,[3]; Zibo 100 mg/kg p.o. QD 14 days,137.2 ± 0.97 mmol/L
same,Plasma Urea,[3]; Zibo 100 mg/kg p.o. QD 14 days,4.77 ± 0.25 mmol/L
same,Plasma Glucose,[3]; Zibo 300 mg/kg p.o. QD 14 days,9.34 ± 0.13 mmol/L
same,Plasma K,[3]; Zibo 300 mg/kg p.o. QD 14 days,4.76 ± 0.09 mmol/L
same,Plasma Na,[3]; Zibo 300 mg/kg p.o. QD 14 days,139.4 ± 0.86 mmol/L
same,Plasma Urea,[3]; Zibo 300 mg/kg p.o. QD 14 days,4.94 ± 0.39 mmol/L
same,"Level of Na, K, glucose and urea in the plasma compared to vehicle",[3]; different doses of zibotentan,no change
same,"Body weight, Difference in means vs Vehicle",[4]; Zibo 30 mg/kg p.o. QD 14 days,0.02
same,"Body weight, Difference in means vs Vehicle",[4]; Zibo 100 mg/kg p.o. QD 14 days,0.02
same,"Body weight, Difference in means vs Vehicle",[4]; Zibo 300 mg/kg p.o. QD 14 days,0.01
same,Body weight change compared to vehicle,"[4]; zibotentan 30, 100 and 300 mg/kg",no difference
same,Kidney/tibia length,[5],54.00 ± 0.80 mg/mm
same,Heart weight,[5]; [7],1.00 ± 0.02 g
same,Heart/tibia length,[5]; [7],25.00 ± 0.47 mg/mm
same,Kidney weight,[5]; [7],2.13 ± 0.04 g
same,Heart weight,[5]; [8],1.05 ± 0.01 g
same,Heart/tibia length,[5]; [8],27.00 ± 0.37 mg/mm
same,Kidney weight,[5]; [8],2.16 ± 0.05 g
same,Kidney/tibia length,[5]; [8],55.0 ± 1.65 mg/mm
same,Heart weight,[5]; [9],0.98 ± 0.00 g
same,Heart/tibia length,[5]; [9],25.00 ± 0.24 mg/mm
same,Kidney/tibia length,[5]; [9],57.0 ± 1.39 mg/mm
same,Heart weight compared to vehicle,[5]; [10],increase
same,Heart weight increase after normalizing with tibia length,[5]; [10],not statistically significant
same,Kidney weight with or without normalizing with tibia length compared to vehicle,"[5]; Exp 1, zibotentan 300 mg/kg, 14 days",increase
same,Day 3 Hb,[2]; Zibo 30 mg/kg p.o. QD,144.4 g/L
same,Day 7 Hb,[2]; Zibo 30 mg/kg p.o. QD,148.6 g/L
same,Day 3 Hb,[2]; Zibo 100 mg/kg p.o. QD,147.5 g/L
same,Day 7 Hb,[2]; Zibo 100 mg/kg p.o. QD,144.8 g/L
same,Basal Hb,[2]; group Zibo 30 mg/kg,160.2 g/L
same,Basal Hb,[2]; group Zibo 100 mg/kg,158.5 g/L
same,Efficacy in Phase 3,[6],insufficient efficacy
